Measured values as given in US11275071B2, “Sensor dyes for real-time sensing of metal ions in aqueous environments” (UWM Research Foundation, Inc., priority 2015, dated 2022).
Entries after “also recorded” stand apart in the source; their conditions may differ. Like-named read-outs stand apart in the source and are kept apart here.

Experiments:
[1] = Response of QAR and PAR to metal ions at pH 7 (absorbance spectrum, colour); type: binding
Method: (§1) The response of QAR to different metal ions was measured to determine its selectivity and compared to another sensor (PAR), which has a similar structure. Samples were prepared with different metal standards at pH 7, and the absorbance spectrum of each sample was recorded (FIG. 6). Also, photographs of the samples are provided below to allow for a visual comparison (FIG. 7).
(§2) The spectra of QAR were compared to the spectrum of the free dyes, and the general response of QAR at pH 7 can be described as follows: […]

[2] = Response of QAR and PAR to metal ions at pH 7, overall comparison; type: binding
Method: as §1, §2

[3] = Protonation states of free QAR, pKA by absorption and ReactLab Equilibria (Example 29); type: physicochemical; conditions: free dye
Method: QAR has three protonation sites: The heterocyclic nitrogen in the quinoline moiety, and the para-hydroxyl group and the ortho-hydroxyl group in the resorcinol ring. The ortho-hydroxyl group is involved in binding with the metal.
The acid dissociation constants (pKA) and spectral profiles were determined for QAR. […] The data was analyzed using ReactLab Equilibria (JPlus Consulting Pty Ltd, Australia) to determine the resulting pKA values. QAR has three protonation sites, so four species were used for the analysis model. The pKA values were assigned using values from well-known molecules with a similar structure.
Error analysis was performed using the measurement uncertainties (pH meter and probe, temperature, etc.) and the conventional rules of error propagation. […] The total uncertainty was estimated from the error analysis (TABLE 5).

[4] = Formation and dissociation constants of QAR, titration with metal ion standard at pH 8.8; type: binding; conditions: for KF / KD: 1:2 complex; for KD: computed from formation constant; for log KF: M^2+ + 2HQAR^− → M(QAR)2^2− + 2H^+; for Kd: read-out: square root over (KD)
Method: The formation constants (KF) were determined for QAR and different metals. The relative binding affinities characterized the selectivity of the sensor, i.e. the sensor's preference for binding one metal over another. Also, the corresponding dissociation constants (KD) were computed from the formation constants. This metric yielded the lower performance limit of the sensor that is thermodynamically possible (for a given set of conditions), and it can provide the practical operating range of the sensor.
The absorbance spectra were recorded using a Perkin-Elmer Lambda 650 spectrophotometer while a QAR solution was titrated with a metal ion standard. Scout titrations were performed to obtain an estimate range for the KD. Then, the titration was performed with a sufficiently low initial dye concentration (approximately equal to the KD) for proper determination. Also, measurements were made using 10 cm longpath cuvettes. The increased pathlength compensated for the reduced dye concentration so measurements were made within the instrumental limitations (i.e. absorbance values greater than 0.05 absorbance units).
The dye solution was pH-buffered at such that only one protonated form of the free dye and complex is present. […] At pH 8.8, the following expression describes the metal-dye complex formation where HQAR^− predominates as the free dye and M(QAR)2^2 predominates as the metal complex, and minimal formation of metal hydroxides is expected. M^2++2HQAR^−→M(QAR)2^2−+2H^+
The data was analyzed in ReactLab Equilibria to determine the formation constant using the above model, and initial concentrations of HQAR and the respective metal. This software performs regression with the entire spectrum to calculate the formation constants specified in the model. Analysis was performed several times with different initial “guesses” for parameter values to ensure the algorithm yielded reproducible results.
The corresponding K values were calculated and are shown in the table below where the standard error from regression is given as the uncertainty values. The accuracy of the values is limited for cobalt and copper because the absorbance changes were too steep to properly capture the hyperbolic nature of the curve. And, the experimental conditions could not be adjusted to yield the same level of instrumental sensitivity and accuracy as the other metals. However, a relative comparison of the binding affinities is valid.

[5] = Protonation states of metal-QAR complexes; type: physicochemical; conditions: M(QAR)2H2 decomposition under acidic conditions, midpoint of species distribution curve
Method: (§3) The dissociation constant under acidic conditions and the pKA for the para-hydroxy group on the metal-QAR complexes was determined. A set of samples containing QAR and a single metal standard, were prepared in a pH buffer containing 2 mM Triton X-100 surfactant. […] The absorption spectrum of each sample was recorded with the Perkin-Elmer Lambda 650 spectrophotometer.
(§4) Analysis was performed in ReactLab Equilibria. The protonation of the para-hydroxy groups was modelled using the first reaction. Here, the pH micro-constants (stepwise protonation of each dye molecule in the complex) could not be resolved, so the two para-hydroxy groups in the complex were treated as both protonated or both deprotonated in the model. The decomposition of the complex under acidic conditions was modelled using the second reaction. M(QAR)2^2−+2H^+→M(QAR)2H2 M(QAR)2H2+2H^+→[…]+2H3QAR^+
The total uncertainty was estimated from the measurements involved in the experiment using rules of conventional error propagation (TABLE 7).

[6] = Decomposition of metal-QAR complexes under acidic conditions, overall; type: physicochemical
Method: as §3, §4
Decomposition of the metal-QAR complexes occurs below pH 3. The dissociation constant is different for each metal. For example, copper has the highest resistance and zinc has the lowest resistance to decomplexation under acidic conditions. Also, this trend [Cu(II)>Co(II)>Ni(II)>Zn(II)] matches the trend in the binding affinities, and the two effects may be related to the specific interactions that occur in the binding of each metal. […]

[7] = accuracy limited, with Co(II) ion
[8] = accuracy limited, with Cu(II) ion

Oc1ccc(N=Nc2cccc3cccnc23)c(O)c1 [QAR, 4-(quinolin-8-yldiazenyl)benzene-1,3-diol]
response to Al(III) (spectrum compared to free dye, colour of complex) [1]: Weakly Sensitive | response to Ca(II) (spectrum compared to free dye, colour of complex) [1]: Insensitive; also recorded: did not undergo a spectral change | response to Cd(II) (spectrum compared to free dye, colour of complex) [1]: Weakly Sensitive | response to Co(II) (spectrum compared to free dye, colour of complex) [1]: Strongly Sensitive; also recorded: magenta complex | response to Cr(III) (spectrum compared to free dye, colour of complex) [1]: Insensitive | response to Cu(II) (spectrum compared to free dye, colour of complex) [1]: Strongly Sensitive; also recorded: orange complex | response to Fe(III) (spectrum compared to free dye, colour of complex) [1]: Severe aggregation; also recorded: does not appreciably complex; also recorded: Aggregation occurs | response to Hg(II) (spectrum compared to free dye, colour of complex) [1]: transparent complex | response to K(I) (spectrum compared to free dye, colour of complex) [1]: Insensitive; also recorded: did not undergo a spectral change | response to Mg(II) (spectrum compared to free dye, colour of complex) [1]: Insensitive; also recorded: did not undergo a spectral change | response to Mn(II) (spectrum compared to free dye, colour of complex) [1]: Weakly Sensitive; also recorded: does not appreciably complex | response to Na(I) (spectrum compared to free dye, colour of complex) [1]: Insensitive; also recorded: did not undergo a spectral change | response to Ni(II) (spectrum compared to free dye, colour of complex) [1]: Strongly Sensitive; also recorded: orange complex | response to Pb(II) (spectrum compared to free dye, colour of complex) [1]: Insensitive; also recorded: does not appreciably complex | response to Sn(II) (spectrum compared to free dye, colour of complex) [1]: Insensitive; also recorded: does not appreciably complex | response to Zn(II) (spectrum compared to free dye, colour of complex) [1]: Strongly Sensitive; also recorded: orange complex | binding selectivity compared with PAR [2]: higher binding selectivity | spectral sensitivity compared with PAR [2]: higher spectral sensitivity | pKa ([3]; site Quinoline N): 2.42 | pKa ([3]; site o-OH): 13 | pKA ([3]; site p-OH): 6.539 | pKa ([3]; site p-OH): 6.5 | KF [4, 7]: (1.86 ± 0.03) × 10^13 M^−2 | KF [4, 8]: (1.85 ± 0.40) × 10^16 M^−2 | KD [4, 7]: (5.30 ± 0.10) × 10^−14 M^2 | KD [4, 8]: (5.40 ± 1.15) × 10^−17 M^2 | KD ([4]; with Hg(II) ion): (1.03 ± 0.04) × 10^−13 M^2 | KD ([4]; with Ni(II) ion): (2.66 ± 0.06) × 10^−13 M^2 | KD ([4]; with Zn(II) ion): (3.24 ± 0.03) × 10^−13 M^2 | KF ([4]; with Hg(II) ion): (9.68 ± 0.45) × 10^12 M^−2 | KF ([4]; with Ni(II) ion): (3.76 ± 0.09) × 10^12 M^−2 | KF ([4]; with Zn(II) ion): (3.09 ± 0.05) × 10^12 M^−2 | log KF [4, 8]: 16.268 M^−2 | log KF ([4]; with Hg(II) ion): 12.986 M^−2 | log KF ([4]; with Ni(II) ion): 12.575 M^−2 | log KF ([4]; with Zn(II) ion): 12.490 M^−2 | Kd [4, 7]: 230 nM | Kd [4, 8]: 7.35 nM | Kd ([4]; with Hg(II) ion): 321 nM | Kd ([4]; with Ni(II) ion): 516 nM | Kd ([4]; with Zn(II) ion): 569 nM | Acidic Dissociation ([5]; Co(II)-QAR complex): 1.593 | Acidic Dissociation ([5]; Cu(II)-QAR complex): 0.635 | Acidic Dissociation ([5]; Ni(II)-QAR complex): 2.455 | Acidic Dissociation ([5]; Zn(II)-QAR complex): 2.558 | trend of resistance to decomplexation under acidic conditions [6]: Cu(II)>Co(II)>Ni(II)>Zn(II)

Oc1ccc(N=Nc2ccccn2)c(O)c1 [PAR, 4-(2-pyridylazo)resorcinol, reference compound]
response to Ca(II) (spectrum compared to free dye, colour of complex) [1]: did not undergo a spectral change | response to Cd(II) (spectrum compared to free dye, colour of complex) [1]: orange complexes | response to Co(II) (spectrum compared to free dye, colour of complex) [1]: magenta complex | response to Cu(II) (spectrum compared to free dye, colour of complex) [1]: magenta complex | response to Fe(III) (spectrum compared to free dye, colour of complex) [1]: magenta complex; also recorded: Aggregation occurs | response to Hg(II) (spectrum compared to free dye, colour of complex) [1]: brown, globular suspension | response to K(I) (spectrum compared to free dye, colour of complex) [1]: did not undergo a spectral change | response to Mg(II) (spectrum compared to free dye, colour of complex) [1]: did not undergo a spectral change | response to Na(I) (spectrum compared to free dye, colour of complex) [1]: did not undergo a spectral change | response to Ni(II) (spectrum compared to free dye, colour of complex) [1]: orange complexes | response to Pb(II) (spectrum compared to free dye, colour of complex) [1]: magenta complex | response to Zn(II) (spectrum compared to free dye, colour of complex) [1]: orange complexes
